The text below walks through data of patent publication US12357606B2, “Compositions and methods for treating defects in avascular cartilaginous tissue by directly administering one or more metabolites of simvastatin” (University of Cincinnati, priority 2017, dated 2025).

Assay [1] relates to avascular tissue. Put plainly: Regeneration of avascular tissue upon direct administration. To be noted: for regeneration on administration: non-HMG-CoA reductase inhibitor metabolites.
The subject of assay [2] is BMP-2. The following applies: non-HMG-CoA reductase inhibitor metabolites.
The test system of assay [3] is BMP-2 mRNA expression in rat NP cells. Briefly: BMP-2 mRNA expression in rat NP cells cultured in alginate beads (RT-qPCR). Type of assay: cell-based. The following applies: for BMP-2 mRNA expression with a GGTase inhibitor, level compared with SV: single GGTase inhibitor. An excerpt: Data are normalized with GAPDH and are expressed as ratio to vehicle (DMSO).
Findings from the investigation on SV stimulating endogenous BMP-2 expression in the treated NP cells, which in turn increases chondrogenic phenotype expression (aggrecan and type II collagen mRNA expression as well as sGAG content), were consistent with the above observations, validating that the small molecule is as efficacious in promoting chondrogenesis as to osteogenesis. […] SV has been prescribed widely for the treatment of hypercholesterolaemia and hypertriglyceridaemia. In humans, it undergoes rapid metabolism to form four major oxidative, NADPH-dependent metabolites, 3′-hydroxy SV (hSV), 6′-exomethylene SV (eSV), 3′,5′-dihydrodiol SV (dSV), and SVA (FIG. 5). […] This raised the question as to whether SVA is dominant in the entire scheme of BMP-2 upregulation. To test whether the levels of induced-BMP-2 by both SV and SVA, respectively, would be any different, the present investigators used the in vitro model system developed in the prior study to conduct the test. Rat NP cells harvested from tail discs were cultured initially in monolayer and then in alginate beads (Zhang H. et al. Spine, 2008; 33(16), the entire disclosure of which is incorporated herein by reference). Cells were treated with DMSO (vehicle), SV or SVA at 1 or 3 μM. Cells were then collected at pre-determined time points and with RNA extracted. Gene expression was analyzed by RT-qPCR. […] The BMP-2 level induced in the SVA group was 5-6 times higher than that in the SV one (FIG. 1A).
The classic mechanism understood for cholesterol lowering by statins is that statins act by competitively inhibiting HMG-CoA reductase, the first committed enzyme of the mevalonate (MVA) pathway. This competition reduces the rate by which HMG-CoA reductase is able to produce MVA, the next molecule in the cascade for the synthesis of prenylation enzyme substrates FPP and GGPP that eventually help produce cholesterol. As indicated previous studies by the inventors (Zhang H. N., Lin C. Y. Spine. 2008; 33(16), fully incorporated herein by reference), when SV was present, BMP-2 mRNA expression of NP cells always responded in a time and dose-dependent manner.
(In general: In qPCR the cycle at which signal appears reflects the starting amount.)

For assay [4], the system named is mevalonate conversion. Put plainly: Inhibition of mevalonate conversion. Type of assay: biochemical.

On to 3′-hydroxy simvastatin [hSV], for which the regeneration on administration result in assay [1] is recorded as “promoted a degree of regeneration”. Moreover, in assay [2], the “effect on BMP-2 upregulation” value was “also affect BMP-2 upregulation”.
Regarding `COC(=O)[C@H](CC(C)C)NC(=O)c1ccc(NC[C@@H](N)CS)cc1-c1ccccc1` [GGTI-286, reference compound], the “BMP-2 mRNA expression with a GGTase inhibitor, level compared with SV” value in assay [3] is reported as “able to increase BMP-2 mRNA expression, but the level was much lower than that found with SV”.
Same read-out and setting: next, `C=C(C)[C@@H]1CC=C(CO)CC1` [POH, reference compound]: “able to increase BMP-2 mRNA expression, but the level was much lower than that found with SV”.
Regarding `CCC(C)(C)C(=O)O[C@H]1C[C@@H](C)C=C2C=C[C@H](C)[C@H](CC[C@@H](O)C[C@@H](O)CC(=O)O)[C@H]21` [SVA, simvastatin beta-hydroxy acid], the “anabolic effect relative to SV alone” value in assay [1] (regeneration of avascular tissue upon direct administration) is recorded as 5-6 times. For the same compound, in assay [4], the “inhibition of mevalonate conversion compared with SV” value was “more efficiently than SV”. Also, the “mRNA expression of BMP-2 in cells treated with SVA compared to cells treated with SV” value in assay [3] (1 μM, Day 1 to 3, rat NP cells) was “the same or doubled”. In addition, the “BMP-2 level induced in the SVA group relative to the SV group” value in assay [3] (1 μM, Day 7, rat NP cells) is recorded as 5-6 times. The “difference in BMP-2 level between SVA and SV” value in assay [3] (3 μM, rat NP cells) is “further augmented”.
As for `CCC(C)(C)C(=O)OC1CC(C)C(O)C2=CC(O)C(C)C(CCC3CC(O)CC(=O)O3)C21` (centres unmarked) [dSV, 3′,5′-dihydrodiol simvastatin], the regeneration on administration entry in assay [1] is given as “promoted a degree of regeneration”. In assay [2], the “effect on BMP-2 upregulation” value is listed as “also affect BMP-2 upregulation”.
